Source: patent US7741520B2, “Sulfonanilide analogs as selective aromatase modulators (SAMs)” (The Ohio State University Research Foundation, priority 2006, dated 2010)

Tests used:
[1] = tested on: aromatase activity in SK-BR-3 breast cancer cells; assay: Aromatase tritiated water-release assay in SK-BR-3 cell lines (first compound set); type: cell-based, human; settings: SK-BR-3 cells, 24 h treatment; five concentrations, each in triplicate; read-out: IC50 (μM), suppression of aromatase activity in SK-BR-3 breast cancer cells
Method: Aromatase Tritiated Water-Release Assay in SK-BR-3 Cell Lines. SK-BR-3 cells were obtained from ATCC (Rockville, Md.). Cell cultures were maintained in phenol red-free custom media (MEM, Earle's salts, 1.5× amino acids, 2× nonessential amino acids, L-glutamine, 1.5× vitamins, Gibco BRL) supplemented with 10% fetal bovine serum (FBS), 2 mM L-glutamine, and 20 mg/L gentamycin. Measurement of aromatase enzyme activity was based on the tritium water release assay. 24 Cells in 100 mm Petri dish were treated with 0.1% DMSO (control), and inhibitors at the indicated concentrations. After 24 h, the media was changed and the cells were incubated with 100 nM [1â-3H]-androst-4-ene-3,17-dione ([…]) for 3 h. Subsequently, the reaction mixture was removed, and proteins were precipitated using 10% trichloroacetic acid at 42° C. for 20 min. After a brief centrifugation, the media was extracted three times with an equal amount of chloroform to extract unused substrate and further dextran-treated charcoal. After centrifugation, a 250-μL aliquot containing the product was counted in 5 mL of liquid scintillation mixture. Results were corrected for blanks and for the cell contents of culture flasks, and results were expressed as picomoles of 3H2O formed per hour incubation time per million live cells (pmol/h/10^6 cells). To determine the amount of cells in each flask, the cells were trypsinized and analyzed using the diphenylamine DNA assay adapted to a 96-well plate. (Natarajan N.; Shambaugh, G. E., 3rd; Elseth K. M.; Haines G. K.; Radosevich J. A. Adaptation of the diphenylamine (DPA) assay to a 96-well plate tissue culture format and comparison with the MTT assay. Biotechniques 1994, 17, 166-171; incorporated herein by reference). IC50 sigmoidal dose-response data were analyzed with Microsoft Excel and the Graphpad Prism (Version 3.0) program.

[2] = tested on: CYP19 mRNA expression in SK-BR-3 cells; assay: CYP19 mRNA expression by real-time RT-PCR in SK-BR-3 cells; type: cell-based, human; settings: 5 μM, 24 h (FIG. 14)
Method: (§1) RNA Extraction. Total RNA was isolated using the TRIzol reagent according to the manufacturer's protocol. Total RNA pellets were dissolved in DNase- and RNase-free water and quantitated using a spectrophotometer. The quality of RNA samples was determined by electrophoresis through agarose gels and staining with ethidium bromide; the 18S and 28S rRNA bands were visualized under ultraviolet light.
(§2) cDNA Synthesis. Isolated total RNA (2 μg) was treated with DNase I Amplification grade, according to the recommended protocol to eliminate any DNA before reverse transcription. Treated total RNA was denatured at 65° C. for 5 min in the presence of 2.5 ng/μL random hexamers and 0.5 mM dNTP mix. The samples were snap-cooled on ice and centrifuged briefly. Complementary DNA (cDNA) was synthesized using Superscript II reverse transcriptase according to the recommended protocol. Briefly, the reactions were conducted in the presence of 1× First-Strand Buffer and 20 mM DTT at 42° C. for 50 min and consequently inactivated at 70° C. for 15 min. The cDNA generated was used as a template in realtime PCR reactions.
Real-Time PCR. Real-time PCR was performed using the Opticon 2 system from MJ Research (Waltham, Mass.). For the CYP19 total gene the PCR reaction mixture consisted of Taqman Universal PCR Master Mix (Applied Biosystems), 600 nM of CYP19 primer (sense: 5′-TGTCTCTTTGTTCTTCATGCTATTTCTC-3′ (SEQ ID NO: 1); antisense: 5′-TCACCAATAACAGTCTGGATTTCC-3′) (SEQ ID NO: 2); 250 nM Taqman probe (6FAM 5′-TGCAAAGCACCCTAATGTTGAAGAGGCAAT-3′TAMRA) (SEQ ID NO: 3) (Invitrogen), 18S rRNA (Applied Biosystems, Foster City, Calif.), and 2.0 μL of each RT sample in a final volume of 20 μL. The Taqman probe was designed to anneal to a specific sequence of the aromatase gene between the forward and the reverse primers. Cycling conditions were 50° C. for 2 mm and 95° C. for 10 mm, followed by 50 cycles at 95° C. for 15 s and 60° C. for 1 mm.
as §1, with “extraction.” for “Extraction.”, “DNase,” for “DNase- and”
as §2, with “synthesis.” for “Synthesis.”, “real-time” for “realtime”
Real-time PCR. Real-time PCR was performed using the Opticon™ 2 system from MJ Research (Waltham, Mass.). For the CYP19 total gene the PCR reaction mixture consisted of Taqman® Universal PCR Master Mix (Applied Biosystems), 600 nM of CYP19 primer (sense: 5′-TGTCTCTTTGTTCTTCATGCTATTTCTC-3′ (SEQ ID NO: 1); antisense: 5′-TCACCAATAACAGTCTGGATTTCC-3′) (SEQ ID NO: 2); 250 nM Taqman probe (6FAM 5′-TGCAAAGCACCCTAATGTTGAAGAGGCAAT-3′TAMRA) (SEQ ID NO: 3) (Invitrogen), and 2.0 μL of each cDNA sample in a final volume of 20 μL. […]

[3] = target: T1, aromatase activity in JAR choriocarcinoma placental cells (Homo sapiens, UniProt P11511); assay: Tritiated water-release assay in JAR cells; type: cell-based; settings: 24 h, 15 μM (FIG. 11), read-out: decrease of aromatase activity in JAR cells
T1 construct: JAR choriocarcinoma placental cells (which produce aromatase expression from promoter I.1 mediated by protein kinase C); host or cells: JAR
T1 sequence (P11511 1-503): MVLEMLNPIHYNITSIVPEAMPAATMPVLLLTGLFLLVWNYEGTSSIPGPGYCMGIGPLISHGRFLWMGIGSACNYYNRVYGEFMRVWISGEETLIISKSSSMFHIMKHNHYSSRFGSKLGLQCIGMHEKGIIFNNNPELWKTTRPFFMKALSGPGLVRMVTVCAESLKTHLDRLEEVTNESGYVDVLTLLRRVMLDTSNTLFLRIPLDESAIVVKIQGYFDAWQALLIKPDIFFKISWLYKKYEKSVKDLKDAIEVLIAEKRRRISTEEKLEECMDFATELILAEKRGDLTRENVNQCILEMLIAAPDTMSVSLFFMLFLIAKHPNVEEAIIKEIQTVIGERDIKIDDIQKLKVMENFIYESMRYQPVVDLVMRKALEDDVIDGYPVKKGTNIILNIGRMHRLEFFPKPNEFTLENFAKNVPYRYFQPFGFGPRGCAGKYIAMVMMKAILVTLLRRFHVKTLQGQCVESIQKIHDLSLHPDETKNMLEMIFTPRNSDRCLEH
Method: Cell Culture. AR and SK-BR-3 cells were obtained from ATCC (Rockville, Md.). SK-BR-3 cells were maintained in phenol red-free custom media (MEM, Earle's salts, 1.5× amino acids, 2× non-essential amino acids, L-glutamine, 1.5× vitamins, Gibco BRL) supplemented with 10% fetal bovine serum (FBS), 2 mM L-glutamine and 20 mg/L gentamycin. JAR cells were maintained in RPMI 1640 medium with 2 mM L-glutamine adjusted to contain 1.5 g/L sodium bicarbonate, 4.5 g/L glucose, 10 mM HEPES, and 1.0 mM sodium pyruvate, 90%; FBS, 10%. Fetal bovine serum was heat inactivated for 30 min in a 56° C. water bath before use. Cell cultures were grown at 37° C., in a humidified atmosphere of 5% CO2 in a Hereaus CO2 incubator. For all experiments, cells were plated in 6 well plates and grown to subconfluency. Before treatment, the media was changed to a defined one containing DMEM/F12 media (Sigma) with 1.0 mg/mL human albumin (OSU Hospital Pharmacy), 5.0 mg/L human transferin and 5.0 mg/L bovine insulin.
Tritiated water-release assay in JAR and SK-BR-3 cell lines. Measurement of aromatase enzyme activity was based on the tritium water release assay. Cells in six well plates were treated with 0.1% DMSO (control), and inhibitors at the indicated concentrations. After 24 hours, the cells were incubated 3 hours (SK-BR-3 cells) or 1 hour (JAR cells) with fresh media along with 100 nM [1β-^3H]-androst-4-ene-3,17-dione (1 μCi). Subsequently, the reaction mixture was removed, and proteins were precipitated using 10% trichloroacetic acid at 42° C. for 20 min. After a brief centrifugation, the media was extracted three times with an equal amount of chloroform to remove remaining substrate and further treated with dextran-treated charcoal. After centrifugation, a 250-μl aliquot containing the product was counted in 5 ml of liquid scintillation mixture. Results were corrected for blanks and for the cell contents of culture flasks, and results were expressed as picomoles of ^3H2O formed per hour incubation time per million live cells (pmol/h/10^6 cells). To determine the amount of cells in each flask, the cells were lysed and analyzed using the diphenylamine DNA assay adapted to a 96-well plate. IC50 sigmoidal dose-response data were analyzed with Microsoft Excel and the Graphpad Prism (Version 3.0) program.
Diphenylamine DNA Assay To determine the amount of viable cells in each flask, the cells were lysed with 0.5N NaOH aqueous solution and analyzed using the diphenylamine DNA assay adapted to a 96-well plate. DNA standards (0-30 μg) were prepared using double-stranded DNA reconstituted in PBS and added in triplicates directly to the wells. A uniform cell suspension was prepared from the 6 well plate in 300 μl 0.5N NaOH aqueous solution, and 60 μl of the unknown samples were added in triplicates to separate wells. A solution of 0.16% acetaldehyde in water was prepared and mixed at a 1:5 ratio with perchloric acid (20% vol/vol). This solution (60 μl) was added to each well along with 100 μl of a 4% diphenylamine solution in glacial acetic acid. The plates were incubated at 37° C. for 24 hours. After centrifugation, 100 μl supernatant of each well was transferred to a new 96 well plate, and the OD595 was measured using a microplater reader. The DNA concentration was determined by extrapolation to the standard curve and the amount of cells/well was calculated using the equation: 1 cell≈7 pg DNA.

Row | melting point [°C] | IC50 [1] [µM] | inhibition at 15 µM [3] [%] | SMILES | CYP19 gene expression [2]
1 | 117 to 119 | 2.51 | – | CCCOc1cc([N+](=O)[O-])ccc1NS(C)(=O)=O [Compound 9, N-(2-Propyloxy-4-nitrophenyl)methanesulfonamide] | –
2 | 128 to 131 | 5.87 | – | CC(C)Oc1cc([N+](=O)[O-])ccc1NS(C)(=O)=O [Compound 10, N-(2-Isopropyloxy-4-nitrophenyl)methanesulfonamide] | –
3 | 70 to 71 | 0.91 | – | CCCCCCCCCOc1cc([N+](=O)[O-])ccc1NS(C)(=O)=O [Compound 14, N-(2-Nonyloxy-4-nitrophenyl)methanesulfonamide] | –
4 | 74 to 76 | 2.67 | – | CCCCCCOc1cc([N+](=O)[O-])ccc1NS(C)(=O)=O [Compound 15, N-(2-Hexyloxy-4-nitrophenyl)methanesulfonamide] | –
5 | 128 to 130 | > 25 | – | COc1cc([N+](=O)[O-])ccc1NS(C)(=O)=O [Compound 16, N-(2-Methoxy-4-nitrophenyl)methanesulfonamide] | –
6 | 66 to 69 | 0.76 | – | CCCOc1cc([N+](=O)[O-])ccc1N(C)S(C)(=O)=O [Compound 18, N-Methyl-N-(2-propyloxy-4-nitrophenyl)methanesulfonamide] | –
7 | 99 to 100 | 2.81 | – | CC(C)Oc1cc([N+](=O)[O-])ccc1N(C)S(C)(=O)=O [Compound 19, N-Methyl-N-(2-isopropyloxy-4-nitrophenyl)methanesulfonamide] | –
8 | 83 to 84 | 3.96 | – | CCCCCCCCCOc1cc([N+](=O)[O-])ccc1N(C)S(C)(=O)=O [Compound 23, N-Methyl-N-(2-nonyloxy-4-nitrophenyl)methanesulfonamide] | –
9 | 44 to 46 | 4.49 | – | CCCCCCOc1cc([N+](=O)[O-])ccc1N(C)S(C)(=O)=O [Compound 24, N-Methyl-N-(2-hexyloxy-4-nitrophenyl)methanesulfonamide] | –
10 | 125 to 126 | > 25 | – | COc1cc([N+](=O)[O-])ccc1N(C)S(C)(=O)=O [Compound 25, N-Methyl-N-(2-methoxy-4-nitrophenyl)methanesulfonamide] | –
11 | – | – | – | CS(=O)(=O)Nc1ccc([N+](=O)[O-])cc1OCCc1ccccc1 [Compound 37b, N-(2-phenylethoxy 4-nitrophenyl) methanesulfonamide] | not affect the CYP19 gene expression
12 | 163 to 165 | – | < 50 | CN(c1ccc([N+](=O)[O-])cc1OCc1cccc2ccccc12)S(C)(=O)=O [Compound 38c, N-methyl-N-[2-(α-naphthylmethoxy) 4-nitrophenyl]methanesulfonamide] | –
